The subject of experiment [1] is Rhesus dermal fibroblasts infected with Rhesus CMV. As to the kind of experiment: radioligand binding assay, 125I-fractalkine on rhCMV-infected cells (Example 3). To be noted: unlabeled fractalkine vs 125I-fractalkine ~50 pM, 2-4 hours at 4° C., FIG. 6; read-out: IC50, reduction of binding of labeled fractalkine to the receptor by 50%. The procedure:
Radioligand binding assays were carried our in the following manner. The target cells typically used in these assays were Rhesus dermal fibroblasts which had been infected with Rhesus; CMV for 3-7 days. Lots of cells verified for fractalkine binding were frozen until ready for use. For the assay, cells were thawed, washed, and resuspended in assay buffer (20 mM HEPES pH 7.1, 140 mM NaCl, 1 mM CaCl2, 5 mM MgCl2, and 0.2% bovine serum albumin) to a concentration of from 4×10^5 to 5×10^6 cells/ml.
Serial dilutions of unlabeled fractalkine were prepared as a 10× solution in 20% DMSO, and 0.02 ml was placed in assay plates. Next 0.09 ml of cells was added to the assay plates containing the unlabeled fractalkine. Lastly, 0.09 ml of ^125I-fractalkine diluted in assay buffer (final concentration ˜50 pM, with 20,000-50,000 cpm per well) was added, the plates sealed and incubated for 2-4 hours at 4° C. on a shaker platform. Assay plates were harvested using Packard GF/B filter plates (pre-soaked in 0.3% polyethyleneimmine (PEI) solution) on a Packard vacuum cell harvester. Scintillation fluid was added to all wells, the plates were sealed and then counted in a Top Count scintillation counter. Control wells containing either diluent only (for total counts) or excess unlabeled fractalkine (1 μg/ml, for non-specific binding) were used to calculate the percent of total inhibition. […]

The subject of experiment [2] is Wild type HCMV virions expressing US28. Nature of the experiment: 125I-fractalkine binding to virions (Example 4), wild type HCMV. More on the design: species or system human CMV strain Toledo. To be noted: 3 hours at 4° C., FIG. 7. As to the method:
(§1) Human dermal fibroblast (HDF) were infected at an MOI of 3 with human CMV strain Toledo or a Toledo strain in which the US28 gene had been replaced with a green fluorescent protein/gpt resistance cassette (Toledo deltaUS28) (see, e.g., Vieira, J. et al. (1998) J. Virol. 72:S158-65). Alternatively, rhesus dermal fibroblasts (RhDF) were infected at an MOI of 3 with rhesus CMV strain 68.1 (see ATCC # VR-677). At 96 hours post infection supernatants were collected.
(§2) Supernatants were cleared by two spins at 1,500 rpm for 5 minutes in a bench top centrifuge. Virions were pelleted from the supernatant for 30 minutes at 10,000 rpm in a Beckman JA-21 or J-14 centrifuge or other similar centrifuge and resuspended in 0.5 ml TN buffer (0.05 M Tris/HCl, pH 7.4, 0.1M NaCl) then layered onto a 5 ml sucrose density gradient (20% to 70% w/v sucrose in TN) in a SW 50 centrifuge tube. Gradients were spun 90 minutes at 24,000 rpm in a Beckman SW50 centrifuge at 10° C. […]
(§3) Following incubation, the assay wells were harvested under vacuum using filter plates, pre-soaked with PEI solution. Scintillation fluid was added, the plates sealed and the radioactivity in the various wells counted.

The test system of experiment [3] is rhCMV virions purified from RHDF cells. As to the kind of experiment: 125I-fractalkine binding to virions (Example 4), rhCMV. Details: species or system rhesus CMV strain 68.1. Conditions: 3 hours at 4° C., FIG. 7. The procedure: as §1, §2, §3
The target of the next experiment is T1, US28 (Human cytomegalovirus, UniProt P69332).
T1 sequence (P69332 1-354): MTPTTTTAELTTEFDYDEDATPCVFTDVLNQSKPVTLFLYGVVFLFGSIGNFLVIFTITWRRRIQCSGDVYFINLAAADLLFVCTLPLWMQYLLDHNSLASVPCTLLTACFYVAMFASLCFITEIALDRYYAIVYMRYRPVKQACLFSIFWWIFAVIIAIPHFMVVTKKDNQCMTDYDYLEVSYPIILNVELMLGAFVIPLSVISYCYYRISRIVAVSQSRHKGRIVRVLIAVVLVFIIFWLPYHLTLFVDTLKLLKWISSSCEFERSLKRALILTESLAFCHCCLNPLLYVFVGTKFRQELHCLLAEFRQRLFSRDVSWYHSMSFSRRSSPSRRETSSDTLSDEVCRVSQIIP
Conditions: Kledal et al., 1998; read-out: KI of binding to US28; cited from earlier work.

Experiment [4] deals with wild type virions (Toledo). Nature of the experiment: 125I-fractalkine competition binding to purified HCMV virions (Example 1). More on the design: species or system HCMV strain Toledo. Conditions: about 3 hours at 4° C., FIG. 5, read-out: IC50, unlabeled fractalkine competing off labeled fractalkine. The procedure:
(§4) Human dermal fibroblasts were infected with HCMV strain Toledo or HCMV TolΔUS28 (Streblow et al., 1999, Cell 99:511-20) at an MOI of 0.01 and maintained at 37° C. and 5% CO2 in Dulbecco's minimal essential medium with 10% fetal calf serum and fed as necessary. At day 15 post infection supernatant was collected and clarified by two rounds of centrifugation at 400 g. Virions from the clarified supernatant were pelleted at 10,000 g, resuspended in TN (50 mM TRIS-Cl pH 7.5, 100 mM NaCl), and purified over two consecutive 20-70% sucrose gradients by standard techniques (Britt W J., 1984, Virology 135: 369-78). Virions were resuspended in 500 ul of assay buffer (20 mM HEPES, 140 mM NaCl, 1 mM CaCl2, 5 mM MgCl2, and with 0.2% bovine serum albumin) and 0.09 mL added to each well of assay plates containing serial dilutions of fractalkine (concentrations between 0-250 nM) in triplicate.
(§5) Then 0.09 mL of ^125I-fractalkine diluted in assay buffer (final concentration ˜2-10 fM, with ˜30,000 cpm per well) was added, the plates sealed and incubated for approximately 3 hours at 4° C. on a shaker platform. The assay plates were harvested using Packard filter plates, pre-soaked in PEI solution, on the vacuum harvest apparatus. Scintillation fluid (35 μL) was added to all wells, the plates were sealed and counted in a Top Count scintillation counter. […]

The subject of experiment [5] is virions with deletion of US28 from the genome (TolΔUS28). As to the kind of experiment: 125I-fractalkine binding to purified US28-deleted HCMV virions (Example 1). Conditions: FIG. 5. The procedure:
as §4, §5

The test system of experiment [6] is HCMV virions lacking US28 (Toledo deltaUS28). As to the kind of experiment: 125I-fractalkine binding to virions (Example 4), US28-deleted HCMV. More on the design: species or system human CMV strain Toledo deltaUS28. Conditions: 3 hours at 4° C., FIG. 7. As to the method: as §1, §2, §3

Take “fractalkine: CX3C chemokine, tends to be cell bound; binds with very high affinity to the US28 receptor of HCMV”: the IC50 in experiment [1] was 0.044 nM; in experiment [4], roughly 0.04 nM. The figures for the “binding of radiolabeled fractalkine to virions” value in experiment [2], in experiment [3] and in experiment [6] were “bind fractalkine tightly”, “also bind to fractalkine” and “do not bind fractalkine”, respectively. Further, the Ki with US28 was roughly 0.05 nM. In experiment [5], the “binding of labeled fractalkine to virions” value is “virtually no binding”.
